From patent US20210032651A1, “IMPROVEMENT OF HERBICIDE TOLERANCE TO HPPD INHIBITORS BY DOWN-REGULATION OF PUTATIVE 4-HYDROXYPHENYLPYRUVATE REDUCTASES IN SOYBEAN” (BASF SE, priority 2017, published 2021)

Test system: soybean T1 plants transformed with pMLS0519 or pCPE825
Experiment: Field trial of the T1 generation, herbicide tolerance
Assay type: in vivo
Details: Puerto Rico, pMLS0519 and pCPE825 the most effective of the constructs tested

## CS(=O)(=O)c1cc(C(F)(F)F)ccc1C(=O)c1cnoc1C1CC1 [isoxaflutole, (5-cyclopropyl-4-isoxazolyl)[2-(methylsulfonyl)-4-(trifluoromethyl)phenyl]methanone]
  tolerance in field trial: good tolerance
